Patent US9504421B2, “Moisture indicating hydrophilic polyurethane” (ACTIVE DEVICE DEVELOPMENT LIMITED, priority 2012, dated 2016)

Assay: Magnitude of colour change (light absorbance) dry vs damp for colour-formers dip-coated on MDI and TDI HPU foam (Example 25)
Settings: for Enhancement: light absorbance damp versus dry
Procedure: A range of colour-formers were dip-coated onto MDI- and TDI-based HPU foams using the following method:
A solution of colour-former in acetone (5 mg/ml) was prepared. A 20×20×5 mm square sample of a TDI-based or MDI-based HPU foam was fully immersed in the colour-former solution (20 ml), taking care to avoid air-locking within the foam. The sample was immediately removed from the solution and excess solution removed with light squeezing followed by hand compression between layers of absorbent tissue.
The sample was oven dried at 70° C. for 10 minutes, resulting in an off-white sample in all cases.
The light absorbance of the resulting samples was recorded in the dry state at the wavelength of maximum light absorbance (when moistened). Each sample was individually fully wet out in deionised water and dried to dampness between absorbent tissue prior to immediate determination of light absorbance at the aforementioned wavelength.

SMILES | Enhancement (MDI HPU foam) | Enhancement (TDI HPU foam) | suitability to function as colour-forming indicator (on MDI or TDI HPU foams at the loading concentrations employed, damp absorbance versus 0.1 absorbance unit visibility limit)
CCN(CC)c1ccc2c(c1)Oc1cc(C)c(Nc3ccccc3)cc1C21OC(=O)c2ccccc21 (stereo not drawn) [WinCon-1, 6-diethylamino-3-methyl-2-phenylaminofluoran] | 6.2 | 6.8 | –
CCN(CC)c1ccc2c(c1)Oc1cc(C)c(Nc3ccc(C)cc3C)cc1C21OC(=O)c2ccccc21 (stereo not drawn) [WinCon-15, 2-(2,4-dimethylphenylamino)-3-methyl-6-diethylaminofluoran] | 6.8 | 9.3 | –
CCN(CC)c1ccc2c(c1)Oc1ccc(N(Cc3ccccc3)Cc3ccccc3)cc1C21OC(=O)c2ccccc21 (stereo not drawn) [WinCon Green, 2-dibenzylamino-6-diethylaminofluoran] | 5.7 | 7.0 | –
CCN(CC)c1ccc(-c2nc(Oc3ccc(C(C)(C)c4ccc(Oc5nc(-c6ccc(N(CC)CC)cc6)nc6ccccc56)cc4)cc3)c3ccccc3n2)cc1 [Pergascript Yellow I 3R, 4,4′-[(1-methylethylidene)bis(4,1-phenyleneoxy-4,2-quinazolinediyl)]bis[N,N-diethyl]benzamine] | 1.1 | 0.7 | not well-suited
CCN(CCC(C)C)c1ccc2c(c1)Oc1cc(C)c(Nc3ccccc3)cc1C21OC(=O)c2ccccc21 (stereo not drawn) [WinCon-205, 6-(N-ethyl, N-isopentylamino)-3-methyl-2-phenylaminofluoran] | 6.3 | 10.3 | –
CN(C)c1ccc(C2(c3ccc(N(C)C)cc3)OC(=O)c3cc(N(C)C)ccc32)cc1 [Crystal Violet Lactone, crystal violet lactone] | 13.4 | 14.8 | –
CCCCN(CCCC)c1ccc2c(c1)Oc1cc(C)c(Nc3ccccc3)cc1C21OC(=O)c2ccccc21 (stereo not drawn) [WinCon-2, 6-dibutylamino-3-methyl-2-phenylaminofluoran] | 5.7 | 8.1 | –
